The text below walks through data of PubChem BioAssay AID1224921 (Broad Institute, 2016).

Calls of active or inactive are those of the source. The rule behind the calls is not given here.

The experiment has as its system Clostridioides difficile clinical isolate growth, OD600, 24 h. Put plainly: inhibitors of Clostridioides difficile proliferation – 4-point retest, confirmation (AID 1224921).
`COc1ccc(-c2ccc([C@H]3[C@@H](C#N)N(C(=O)C4CCC4)[C@H]3CO)cc2)cc1`: the AC50 was > 70 µM (inactive).

For the molecule `CCNC(=O)C[C@@H]1CC[C@@H]2[C@H](COC[C@@H](O)CN2C(=O)Nc2ccc(Cl)c(Cl)c2)O1`, the AC50 was 16.5 µM.

Consider `O=C(C[C@@H]1CC[C@@H]2[C@H](COC[C@H](O)CN2C(=O)Nc2cc(Cl)cc(Cl)c2)O1)NCC1CC1`, for which the AC50 is 16.9 µM.

With `C[C@@H]1CN([C@@H](C)CO)C(=O)Cc2cc(N(C)C)ccc2O[C@H]1CN(C)Cc1ccc(Oc2ccccc2)cc1`, the AC50 is 19.1 µM.

As for `C[C@@H](NC(=O)C[C@@H]1CC[C@@H]2[C@H](COC[C@H](O)CN2C(=O)Nc2cc(Cl)cc(Cl)c2)O1)c1ccccc1`, the AC50 was 9.64 µM.

For `CCCN(C)C[C@@H]1OCCCC[C@H](C)Oc2ccc(NC(=O)Nc3ccc(C(F)(F)F)cc3)cc2C(=O)N([C@@H](C)CO)C[C@@H]1C`, the AC50 was 12.5 µM.

As for `C[C@@H]1CN([C@H](C)CO)S(=O)(=O)c2ccc(C#Cc3ccccc3)cc2O[C@H]1CN(C)C`, the AC50 is 28.4 µM.

Take `CO[C@H]1CN(C)C(=O)c2cc(NC(=O)Nc3cc(Cl)cc(Cl)c3)ccc2OC[C@H](C)NC[C@H]1C`: the AC50 was 11.6 µM.

On to `C[C@H]1CN([C@@H](C)CO)C(=O)c2cccc(NC(=O)c3ccncc3)c2O[C@@H]1CN(C)Cc1ccc(-c2ccccc2)cc1`, for which the AC50 is 1.74 µM.

`O=C(C[C@@H]1CC[C@@H]2[C@H](COC[C@@H](O)CN2C(=O)Nc2ccc(Cl)c(Cl)c2)O1)NCc1ccc(F)cc1`: the AC50 was 1.87 µM.

Take `CO[C@H]1CN(C)C(=O)c2ccc(NC(=O)Nc3cc(Cl)cc(Cl)c3)cc2OC[C@@H](C)NC[C@H]1C`: the AC50 was 15.1 µM.

With `C[C@@H]1CCCCO[C@H](CN(C)C(=O)Nc2ccc(C(F)(F)F)cc2)[C@H](C)CN([C@@H](C)CO)C(=O)c2cc(N(C)C)ccc2O1`, the AC50 is > 60 µM (inactive).

In the case of `C[C@@H]1CN([C@H](C)CO)S(=O)(=O)c2ccc(C#CC3CCCCC3)cc2O[C@@H]1CN(C)C`, the AC50 was 16.9 µM.

On to `CNC(=O)C[C@H]1CC[C@H]2[C@@H](COC[C@@H](O)CN2C(=O)Nc2ccc(Cl)c(Cl)c2)O1`, for which the AC50 was 2.75 µM.

As for `CO[C@@H]1CN(C)C(=O)c2ccc(NC(=O)Nc3cc(Cl)cc(Cl)c3)cc2OC[C@H](C)NC[C@H]1C`, the AC50 was 7.81 µM.

For `O=C(C[C@@H]1CC[C@@H]2[C@H](COC[C@H](O)CN2C(=O)Nc2ccc(C(F)(F)F)cc2)O1)NCC1CCCCC1`, the AC50 is 1.09 µM.

Consider `CO[C@@H]1CN(C)C(=O)c2cc(NC(=O)Nc3cc(Cl)cc(Cl)c3)ccc2OC[C@H](C)NC[C@@H]1C`, for which the AC50 was 9.05 µM.

Consider `C[C@H](CO)N1C[C@H](C)[C@@H](CN(C)C(=O)Nc2ccc(C(F)(F)F)cc2)Oc2ccc(NC(=O)C3CC3)cc2C1=O`, for which the AC50 is 15.5 µM.

For the molecule `C[C@H](CO)N1C[C@H](C)[C@H](CN(C)C(=O)Nc2ccc(F)cc2)Oc2c(NC(=O)Nc3ccc(C(F)(F)F)cc3)cccc2C1=O`, the AC50 was 33.7 µM.

Turning to `O=C(C[C@@H]1CC[C@@H]2[C@H](COC[C@@H](O)CN2C(=O)Nc2ccc(C(F)(F)F)cc2)O1)NCCc1ccncc1`, the AC50 is 4.07 µM.

`COc1ccccc1CNC(=O)C[C@@H]1CC[C@H]2[C@@H](COC[C@@H](O)CN2C(=O)Nc2ccc(C(F)(F)F)cc2)O1`: the AC50 is 2.14 µM.

`O=C1C[C@@](C(=O)NCCN2CCOCC2)(c2ccc([N+](=O)[O-])cc2)[C@@H](c2ccc(CO)cc2I)N1CC12CC3CC(CC(C3)C1)C2`: the AC50 is 18.8 µM.

For `CO[C@H]1CN(C)C(=O)c2cc(NC(=O)Nc3ccc(Cl)c(Cl)c3)ccc2OC[C@@H](C)NC[C@@H]1C`, the AC50 is 4.39 µM.

As for `O=C(C[C@H]1CC[C@H]2[C@@H](COC[C@H](O)CN2C(=O)Nc2ccc(Cl)c(Cl)c2)O1)NCc1ccc(Cl)cc1`, the AC50 is 1.07 µM.

On to `C[C@@H]1CCCCO[C@H](CN(C)Cc2ccc3c(c2)OCO3)[C@@H](C)CN([C@@H](C)CO)C(=O)c2cc(NC(=O)Nc3ccc(C(F)(F)F)cc3)ccc2O1`, for which the AC50 was 20.9 µM.

As for `C[C@@H]1CN([C@H](C)CO)C(=O)c2cc(NC(=O)Nc3ccc(C(F)(F)F)cc3)ccc2O[C@@H](C)CCCCO[C@H]1CN(C)Cc1ccccc1`, the AC50 is 6.56 µM.

As to `O=C(C[C@@H]1CC[C@H]2[C@@H](COC[C@@H](O)CN2C(=O)Nc2ccc(Cl)c(Cl)c2)O1)NCc1ccccc1`, the AC50 is 1.6 µM.

`O=C(C[C@@H]1CC[C@@H]2[C@H](COC[C@H](O)CN2C(=O)Nc2cc(Cl)cc(Cl)c2)O1)N1CCCCC1`: the AC50 was 1.41 µM.

As for `O=C(C[C@H]1CC[C@H]2[C@@H](COC[C@@H](O)CN2C(=O)Nc2ccc(C(F)(F)F)cc2)O1)NCCc1ccncc1`, the AC50 is 3.88 µM.

`CCS(=O)(=O)N1[C@H](CO)[C@H](c2ccc(C#CCC3CCCC3)cc2)[C@@H]1C#N`: the AC50 was 19.8 µM.

Regarding `O=C(C[C@@H]1CC[C@H]2[C@@H](COC[C@H](O)CN2C(=O)Nc2ccc(Cl)c(Cl)c2)O1)NCc1ccccc1`, the AC50 is 3.53 µM.

`C[C@@H]1CN([C@H](C)CO)C(=O)c2cccc(NC(=O)Nc3ccc(C(F)(F)F)cc3)c2O[C@@H]1CN(C)C(=O)Nc1ccccc1`: the AC50 was 32.9 µM.

`O=C(C[C@@H]1CC[C@H]2[C@@H](COC[C@H](O)CN2C(=O)Nc2ccc(Cl)c(Cl)c2)O1)NCc1ccc(Cl)cc1`: the AC50 was 2.61 µM.

`O=C(NCC[C@H]1CC[C@H](NC(=O)c2cccnc2)[C@H](CO)O1)Nc1ccc(C(F)(F)F)cc1`: the AC50 is 1.6 µM.

For the molecule `COc1ccc(C#Cc2cnc3c(c2)C(=O)N([C@@H](C)CO)C[C@@H](C)[C@H](CN(C)CC2CCCC2)O3)cc1`, the AC50 is 13.1 µM.

With `C[C@@H]1CCCCO[C@@H](CN(C)CC2CC2)[C@H](C)CN([C@H](C)CO)C(=O)c2cc(NC(=O)Nc3ccc(C(F)(F)F)cc3)ccc2O1`, the AC50 was 15.9 µM.

Take `C[C@@H]1CCCCO[C@H](CN(C)CC2CC2)[C@H](C)CN([C@@H](C)CO)C(=O)c2cc(NC(=O)Nc3ccc(C(F)(F)F)cc3)ccc2O1`: the AC50 was 16 µM.

For `NC(=O)[C@@H]1[C@H]2C(=O)O[C@H](c3ccccc3)[C@H](c3ccccc3)N2[C@H](c2ccccc2OCCO)[C@@]12C(=O)Nc1ccccc12`, the AC50 was 32.8 µM.

For the molecule `CNC[C@@H]1OCCCC[C@H](C)Oc2ccc(NC(=O)Nc3ccc(C(F)(F)F)cc3)cc2C(=O)N([C@H](C)CO)C[C@@H]1C`, the AC50 was 19.2 µM.

With `O=C(NCC[C@H]1CC[C@@H](NC(=O)c2cccnc2)[C@@H](CO)O1)Nc1ccc(C(F)(F)F)cc1`, the AC50 was 2.9 µM.

Regarding `CCC(=O)Nc1ccc2c(c1)C(=O)N(C)C[C@@H](OC)[C@H](C)CN(C(=O)NC(C)C)[C@@H](C)CO2`, the AC50 was > 60 µM (inactive).

Turning to `C[C@@H]1CN([C@@H](C)CO)C(=O)c2cccc(NC(=O)Nc3ccc(F)cc3)c2O[C@@H]1CN(C)Cc1ccc(-c2ccccc2)cc1`, the AC50 was less than 0.5 µM.

Take `O=C(NCC[C@@H]1CC[C@H](NC(=O)c2cccnc2)[C@H](CO)O1)Nc1ccc(C(F)(F)F)cc1`: the AC50 is 3.01 µM.

Regarding `C[C@H](CO)N1C[C@H](C)[C@@H](CN(C)CC2CCCC2)Oc2ncc(C#CCc3ccccc3)cc2C1=O`, the AC50 was > 60 µM (inactive).

Regarding `COc1ccc(NC(=O)Nc2cccc3c2O[C@H](CN(C)Cc2ccc(C(F)(F)F)cc2)[C@H](C)CN([C@@H](C)CO)C3=O)cc1`, the AC50 was 15.9 µM.

Consider `O=C(NCC[C@H]1CC[C@H](NC(=O)C2CC2)[C@H](CO)O1)Nc1ccc(C(F)(F)F)cc1`, for which the AC50 is 16 µM.

In the case of `O=C(C[C@@H]1CC[C@@H]2[C@H](COC[C@@H](O)CN2C(=O)Nc2ccc(Cl)c(Cl)c2)O1)NCc1ccccc1`, the AC50 is 1.4 µM.

Take `C[C@@H]1CN([C@H](C)CO)S(=O)(=O)c2ccc(C#CCC3CCCC3)cc2O[C@H]1CN(C)C`: the AC50 is 16.9 µM.

On to `CS(=O)(=O)N1[C@H](C#N)[C@@H](c2ccc(C#CC3CCCC3)cc2)[C@@H]1CO`, for which the AC50 is > 70 µM (inactive).

For the molecule `O=C(C[C@H]1CC[C@H]2[C@@H](COC[C@@H](O)CN2C(=O)Nc2ccc(Cl)c(Cl)c2)O1)NCc1ccc(F)cc1`, the AC50 was 1.36 µM.

`O=C(C[C@H]1C[C@H]2c3cc(NC(=O)Nc4ccccc4)ccc3O[C@H]2[C@H](CO)O1)NC1CCCC1`: the AC50 is > 60 µM (inactive).

On to `O=C(C[C@@H]1CC[C@@H]2[C@H](COC[C@@H](O)CN2C(=O)Nc2cccc(Cl)c2)O1)N1CCCCC1`, for which the AC50 is 18.7 µM.

As to `O=C(C[C@H]1CC[C@@H]2[C@H](COC[C@H](O)CN2C(=O)Nc2cc(Cl)cc(Cl)c2)O1)N1CCOCC1`, the AC50 is 9.61 µM.

As to `C[C@@H]1CCCCO[C@@H](CN(C)Cc2ccc3c(c2)OCO3)[C@H](C)CN([C@@H](C)CO)C(=O)c2cc(NC(=O)Nc3ccc(C(F)(F)F)cc3)ccc2O1`, the AC50 was > 60 µM (inactive).

As to `O=C(C[C@@H]1CC[C@@H]2[C@H](COC[C@H](O)CN2C(=O)Nc2ccc(Cl)c(Cl)c2)O1)NCc1ccc(Cl)cc1`, the AC50 is 0.915 µM.

As to `CCNC(=O)C[C@@H]1CC[C@H]2[C@@H](COC[C@H](O)CN2C(=O)Nc2ccc(Cl)c(Cl)c2)O1`, the AC50 was 7.98 µM.

Take `CCNC(=O)C[C@@H]1CC[C@@H]2[C@H](COC[C@@H](O)CN2C(=O)Nc2ccc(C(F)(F)F)cc2)O1`: the AC50 was 13.6 µM.

Turning to `CO[C@H]1CN(C)C(=O)c2cc(NC(=O)Nc3cc(Cl)cc(Cl)c3)ccc2OC[C@H](C)NC[C@@H]1C`, the AC50 is 9.09 µM.

On to `O=C(Nc1ccc(-c2ccccc2)cc1)[C@@H]1[C@@H](CO)[C@@H]2Cn3c(cccc3=O)[C@@H]2N1CC1CCCCC1`, for which the AC50 is > 60 µM (inactive).

In the case of `Cc1ccc(S(=O)(=O)N2C[C@@H](O)COC[C@H]3O[C@H](CC(=O)NCc4ccc(Cl)c(Cl)c4)CC[C@@H]32)cc1`, the AC50 was > 60 µM (inactive).

Turning to `CO[C@@H]1CN(C)C(=O)c2cc(NC(=O)Nc3ccc(Cl)c(Cl)c3)ccc2OC[C@H](C)NC[C@H]1C`, the AC50 was 6.72 µM.

As to `CCCC(=O)Nc1ccc2c(c1)C(=O)N(C)[C@@H]1CC[C@@H](CC(=O)OC)O[C@@H]1CO2`, the AC50 is > 60 µM (inactive).

Consider `C[C@@H]1CN([C@@H](C)CO)C(=O)c2cccc(NC(=O)Nc3ccc(F)cc3)c2O[C@@H]1CN(C)Cc1ccc(C(F)(F)F)cc1`, for which the half-maximal activity concentration (AC50) is 2.37 µM.

With `O=C(NCC[C@H]1CC[C@H](NC(=O)c2cccnc2)[C@@H](CO)O1)Nc1ccc(C(F)(F)F)cc1`, the AC50 is 1.79 µM.

Take `N#C[C@H]1[C@@H](c2ccc(C#Cc3cccc(F)c3)cc2)[C@H](CO)N1C(=O)C1CCC1`: the AC50 was 26.4 µM.
